From the kinase profiling compilation of Christmann-Franck et al. (2016)
Where “and” joins values, the source holds several entries; their conditions need not be identical. Identical values can stand only once.

Legend:
Experiment in all cases: KINOMEscan competition binding
Settings in all cases: compound 10.0 µM
CAMK1G (human) = CAMK1G (human) (UniProt Q96NX5)
CAMK2G (human) = CAMK2G (human) (UniProt Q13555)
CDK3 (human) = CDK3 (human) (UniProt Q00526)
CDKL1 (human) = CDKL1 (human) (UniProt Q00532)
CHEK1 (human) = CHEK1 (human) (UniProt O14757)
CIT (human) = CIT (human) (UniProt O14578)
CPK1 (P.falciparum) = system: CPK1 (P.falciparum)
CSNK1D (human) = CSNK1D (human) (UniProt P48730)
EPHB3 (human) = EPHB3 (human) (UniProt P54753)
FLT4 (human) = FLT4 (human) (UniProt P35916)
GSK3A (human) = GSK3A (human) (UniProt P49840)
HCK (human) = HCK (human) (UniProt P08631)
HIPK4 (human) = HIPK4 (human) (UniProt Q8NE63)
IRAK1 (human) = IRAK1 (human) (UniProt P51617)
[1] = system: KIT (human), P10721 [D816H]
LATS2 (human) = LATS2 (human) (UniProt Q9NRM7)
LIMK1 (human) = LIMK1 (human) (UniProt P53667)
LYN (human) = LYN (human) (UniProt P07948)
MAP3K5 (human) = MAP3K5 (human) (UniProt Q99683)
MAP3K6 (human) = MAP3K6 (human) (UniProt O95382)
MAPK7 (human) = MAPK7 (human) (UniProt Q13164)
MET (human) = MET (human) (UniProt P08581)
[2] = system: MET (human), P08581 [M1250T]
MKNK2 (human) = MKNK2 (human) (UniProt Q9HBH9)
MYLK (human) = MYLK (human) (UniProt Q15746)
MYLK2 (human) = MYLK2 (human) (UniProt Q9H1R3)
PDGFRA (human) = PDGFRA (human) (UniProt P16234)
PKMYT1 (human) = PKMYT1 (human) (UniProt Q99640)
PKN2 (human) = PKN2 (human) (UniProt Q16513)
PLK1 (human) = PLK1 (human) (UniProt P53350)
PLK3 (human) = PLK3 (human) (UniProt Q9H4B4)
PRKCI (human) = PRKCI (human) (UniProt P41743)
PRKG2 (human) = PRKG2 (human) (UniProt Q13237)
RET (human) = RET (human) (UniProt P07949)
ROS1 (human) = ROS1 (human) (UniProt P08922)
RPS6KA5 KD2 (human) = RPS6KA5 KD2 (human) (UniProt O75582)
SGK3 (human) = SGK3 (human) (UniProt Q96BR1)
SNRK (human) = SNRK (human) (UniProt Q9NRH2)
STK32A (human) = STK32A (human) (UniProt Q8WU08)
STK32B (human) = STK32B (human) (UniProt Q9NY57)
ULK3 (human) = ULK3 (human) (UniProt Q6PHR2)

SGK3 (human), sequence (Q96BR1 whole entry, looked up): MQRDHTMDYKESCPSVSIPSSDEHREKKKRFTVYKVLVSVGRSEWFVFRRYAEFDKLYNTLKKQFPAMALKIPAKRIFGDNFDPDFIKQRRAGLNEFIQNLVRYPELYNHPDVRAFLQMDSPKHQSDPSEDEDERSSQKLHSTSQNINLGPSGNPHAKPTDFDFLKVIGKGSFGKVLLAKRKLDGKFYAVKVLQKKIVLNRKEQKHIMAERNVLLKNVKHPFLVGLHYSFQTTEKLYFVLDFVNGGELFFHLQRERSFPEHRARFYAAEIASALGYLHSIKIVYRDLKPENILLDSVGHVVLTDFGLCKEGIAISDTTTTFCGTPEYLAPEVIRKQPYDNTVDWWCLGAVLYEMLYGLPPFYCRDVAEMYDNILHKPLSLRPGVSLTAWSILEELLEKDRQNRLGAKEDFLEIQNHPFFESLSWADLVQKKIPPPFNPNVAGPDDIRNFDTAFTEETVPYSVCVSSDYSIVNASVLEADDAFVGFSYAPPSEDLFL
FLT4 (human), sequence (P35916 whole entry, looked up): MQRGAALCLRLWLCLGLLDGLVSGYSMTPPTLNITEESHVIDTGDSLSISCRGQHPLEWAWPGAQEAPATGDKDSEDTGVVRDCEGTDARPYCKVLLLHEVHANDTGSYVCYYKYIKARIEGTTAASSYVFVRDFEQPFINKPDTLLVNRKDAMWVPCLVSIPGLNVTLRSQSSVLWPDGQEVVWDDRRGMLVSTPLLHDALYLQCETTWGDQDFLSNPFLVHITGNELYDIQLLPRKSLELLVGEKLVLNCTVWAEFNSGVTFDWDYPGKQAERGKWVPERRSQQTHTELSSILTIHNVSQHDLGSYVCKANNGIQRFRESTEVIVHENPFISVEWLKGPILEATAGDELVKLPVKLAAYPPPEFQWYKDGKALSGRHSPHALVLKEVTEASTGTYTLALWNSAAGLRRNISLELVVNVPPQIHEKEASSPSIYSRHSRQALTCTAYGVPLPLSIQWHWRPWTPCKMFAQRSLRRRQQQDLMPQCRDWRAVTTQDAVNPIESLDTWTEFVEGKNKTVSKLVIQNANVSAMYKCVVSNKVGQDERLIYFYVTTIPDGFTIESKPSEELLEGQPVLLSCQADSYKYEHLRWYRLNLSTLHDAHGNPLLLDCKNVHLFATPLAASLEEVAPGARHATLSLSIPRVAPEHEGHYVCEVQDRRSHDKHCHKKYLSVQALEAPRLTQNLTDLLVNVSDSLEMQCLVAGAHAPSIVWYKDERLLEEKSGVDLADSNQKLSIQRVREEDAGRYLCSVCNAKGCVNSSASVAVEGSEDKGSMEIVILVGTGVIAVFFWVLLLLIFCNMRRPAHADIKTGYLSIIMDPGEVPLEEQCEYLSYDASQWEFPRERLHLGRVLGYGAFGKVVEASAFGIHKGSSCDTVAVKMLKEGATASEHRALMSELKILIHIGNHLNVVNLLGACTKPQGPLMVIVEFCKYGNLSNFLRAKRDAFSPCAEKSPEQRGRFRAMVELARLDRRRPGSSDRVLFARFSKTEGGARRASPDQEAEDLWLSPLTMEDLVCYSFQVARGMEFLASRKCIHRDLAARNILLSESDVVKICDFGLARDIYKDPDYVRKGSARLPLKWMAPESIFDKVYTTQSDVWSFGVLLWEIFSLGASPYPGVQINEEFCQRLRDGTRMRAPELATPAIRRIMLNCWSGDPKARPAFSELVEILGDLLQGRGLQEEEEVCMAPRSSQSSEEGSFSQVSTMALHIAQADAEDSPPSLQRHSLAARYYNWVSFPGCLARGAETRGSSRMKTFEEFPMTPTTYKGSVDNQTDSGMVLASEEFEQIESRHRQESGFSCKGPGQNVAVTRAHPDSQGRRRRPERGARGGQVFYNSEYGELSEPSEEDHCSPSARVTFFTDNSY
MAP3K6 (human), sequence (O95382 whole entry, looked up): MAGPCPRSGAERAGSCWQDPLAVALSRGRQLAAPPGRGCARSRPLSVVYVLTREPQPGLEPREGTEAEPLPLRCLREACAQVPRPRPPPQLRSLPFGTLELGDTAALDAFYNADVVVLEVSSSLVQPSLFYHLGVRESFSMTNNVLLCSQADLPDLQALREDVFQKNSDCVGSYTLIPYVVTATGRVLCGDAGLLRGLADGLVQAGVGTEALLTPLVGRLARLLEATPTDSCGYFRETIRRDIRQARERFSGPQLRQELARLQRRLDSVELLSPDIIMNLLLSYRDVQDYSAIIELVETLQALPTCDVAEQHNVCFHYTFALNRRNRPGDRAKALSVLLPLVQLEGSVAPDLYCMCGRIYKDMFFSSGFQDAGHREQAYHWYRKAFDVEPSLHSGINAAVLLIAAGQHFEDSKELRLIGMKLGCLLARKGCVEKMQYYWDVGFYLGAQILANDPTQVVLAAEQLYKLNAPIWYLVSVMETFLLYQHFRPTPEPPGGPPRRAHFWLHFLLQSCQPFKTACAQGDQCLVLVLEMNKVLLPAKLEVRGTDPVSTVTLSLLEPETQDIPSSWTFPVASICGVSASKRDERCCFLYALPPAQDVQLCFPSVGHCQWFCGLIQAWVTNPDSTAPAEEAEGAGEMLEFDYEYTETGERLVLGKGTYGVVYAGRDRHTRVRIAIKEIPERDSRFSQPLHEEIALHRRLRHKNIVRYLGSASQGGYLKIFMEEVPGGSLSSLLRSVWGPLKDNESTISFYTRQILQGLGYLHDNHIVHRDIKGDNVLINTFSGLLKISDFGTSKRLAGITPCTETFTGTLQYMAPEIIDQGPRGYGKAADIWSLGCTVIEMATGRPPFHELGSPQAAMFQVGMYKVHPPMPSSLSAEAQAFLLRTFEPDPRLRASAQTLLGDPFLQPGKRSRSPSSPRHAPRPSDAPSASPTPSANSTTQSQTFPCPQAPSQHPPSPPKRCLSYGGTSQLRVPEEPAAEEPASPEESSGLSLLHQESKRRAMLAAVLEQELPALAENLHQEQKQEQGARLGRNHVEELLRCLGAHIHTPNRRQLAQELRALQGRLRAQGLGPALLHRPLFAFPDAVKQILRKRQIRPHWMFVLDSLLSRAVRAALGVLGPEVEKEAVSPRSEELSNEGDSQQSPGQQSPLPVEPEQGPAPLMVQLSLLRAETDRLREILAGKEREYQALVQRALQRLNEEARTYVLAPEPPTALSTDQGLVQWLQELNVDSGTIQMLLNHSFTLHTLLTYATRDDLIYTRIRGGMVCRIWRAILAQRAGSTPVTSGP
CDKL1 (human), sequence (Q00532 whole entry, looked up): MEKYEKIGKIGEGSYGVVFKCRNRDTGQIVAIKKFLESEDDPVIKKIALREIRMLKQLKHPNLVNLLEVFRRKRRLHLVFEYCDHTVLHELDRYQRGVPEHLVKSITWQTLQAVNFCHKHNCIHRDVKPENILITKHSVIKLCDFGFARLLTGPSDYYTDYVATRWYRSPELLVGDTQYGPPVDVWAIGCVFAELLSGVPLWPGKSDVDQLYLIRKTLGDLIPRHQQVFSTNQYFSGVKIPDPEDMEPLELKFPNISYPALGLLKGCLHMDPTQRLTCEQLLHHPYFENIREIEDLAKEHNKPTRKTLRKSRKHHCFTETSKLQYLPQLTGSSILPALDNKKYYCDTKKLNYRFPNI
EPHB3 (human), sequence (P54753 whole entry, looked up): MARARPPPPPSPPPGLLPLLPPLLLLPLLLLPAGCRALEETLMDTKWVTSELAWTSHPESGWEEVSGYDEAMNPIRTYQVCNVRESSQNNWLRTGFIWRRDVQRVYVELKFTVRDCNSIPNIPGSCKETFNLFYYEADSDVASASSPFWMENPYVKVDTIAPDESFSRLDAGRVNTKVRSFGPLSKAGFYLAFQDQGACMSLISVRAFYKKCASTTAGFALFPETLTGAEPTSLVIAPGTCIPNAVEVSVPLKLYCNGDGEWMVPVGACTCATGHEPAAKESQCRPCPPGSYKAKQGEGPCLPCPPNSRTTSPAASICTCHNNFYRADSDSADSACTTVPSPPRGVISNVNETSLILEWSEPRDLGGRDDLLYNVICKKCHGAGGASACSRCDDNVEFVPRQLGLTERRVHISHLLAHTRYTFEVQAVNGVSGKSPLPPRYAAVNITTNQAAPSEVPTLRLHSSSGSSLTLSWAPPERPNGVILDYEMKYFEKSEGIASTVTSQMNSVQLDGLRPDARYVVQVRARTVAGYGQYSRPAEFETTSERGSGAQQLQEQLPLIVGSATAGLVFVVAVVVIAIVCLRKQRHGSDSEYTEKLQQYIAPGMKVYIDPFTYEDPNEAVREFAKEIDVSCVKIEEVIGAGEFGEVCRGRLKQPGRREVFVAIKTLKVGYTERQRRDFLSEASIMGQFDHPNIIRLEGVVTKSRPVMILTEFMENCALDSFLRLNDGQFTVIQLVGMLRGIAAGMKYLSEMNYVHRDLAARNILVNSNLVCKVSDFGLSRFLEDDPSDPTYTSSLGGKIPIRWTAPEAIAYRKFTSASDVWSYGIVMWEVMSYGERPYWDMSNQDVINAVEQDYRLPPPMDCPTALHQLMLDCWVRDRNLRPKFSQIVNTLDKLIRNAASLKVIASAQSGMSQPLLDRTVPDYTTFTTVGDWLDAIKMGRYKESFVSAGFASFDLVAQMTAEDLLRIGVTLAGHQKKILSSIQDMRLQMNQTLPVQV
LYN (human), sequence (P07948 whole entry, looked up): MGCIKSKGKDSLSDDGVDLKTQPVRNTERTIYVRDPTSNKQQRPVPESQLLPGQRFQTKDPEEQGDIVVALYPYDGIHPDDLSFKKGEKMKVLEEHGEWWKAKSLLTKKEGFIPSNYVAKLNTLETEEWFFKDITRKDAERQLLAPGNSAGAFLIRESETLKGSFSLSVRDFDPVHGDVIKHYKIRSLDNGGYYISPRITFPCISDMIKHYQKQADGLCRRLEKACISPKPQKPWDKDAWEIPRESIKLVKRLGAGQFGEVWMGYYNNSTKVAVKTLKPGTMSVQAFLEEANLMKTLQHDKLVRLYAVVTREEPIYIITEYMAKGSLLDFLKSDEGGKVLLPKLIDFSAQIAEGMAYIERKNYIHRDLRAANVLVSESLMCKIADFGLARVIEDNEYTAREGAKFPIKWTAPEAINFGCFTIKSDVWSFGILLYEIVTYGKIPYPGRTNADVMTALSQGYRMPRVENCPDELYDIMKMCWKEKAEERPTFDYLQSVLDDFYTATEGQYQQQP

## O=c1[nH]c2ccccc2n1C1CCN(Cc2ccc(-c3nc4cc5[nH]cnc5cc4nc3-c3ccccc3)cc2)CC1
CAMK1G (human)
  kinase still bound, per cent of control: 90%
CAMK2G (human)
  kinase still bound, per cent of control: 100%
CDK3 (human)
  kinase still bound, per cent of control: 100%
CDKL1 (human)
  kinase still bound, per cent of control: 84%
CHEK1 (human)
  kinase still bound, per cent of control: 100%
CIT (human)
  kinase still bound, per cent of control: 47%
CPK1 (P.falciparum)
  kinase still bound, per cent of control: 40%
CSNK1D (human)
  kinase still bound, per cent of control: 18%
EPHB3 (human)
  kinase still bound, per cent of control: 100%
FLT4 (human)
  kinase still bound, per cent of control: 100%
GSK3A (human)
  kinase still bound, per cent of control: 100%
HCK (human)
  kinase still bound, per cent of control: 90%
HIPK4 (human)
  kinase still bound, per cent of control: 72%
IRAK1 (human)
  kinase still bound, per cent of control: 76%
[1]
  kinase still bound, per cent of control: 100%
LATS2 (human)
  kinase still bound, per cent of control: 82%
LIMK1 (human)
  kinase still bound, per cent of control: 86%
LYN (human)
  kinase still bound, per cent of control: 72%
MAP3K5 (human)
  kinase still bound, per cent of control: 83%
MAP3K6 (human)
  kinase still bound, per cent of control: 100%
MAPK7 (human)
  kinase still bound, per cent of control: 100%
MET (human)
  kinase still bound, per cent of control: 39%
[2]
  kinase still bound, per cent of control: 28%
MKNK2 (human)
  kinase still bound, per cent of control: 81%
MYLK (human)
  kinase still bound, per cent of control: 57%
MYLK2 (human)
  kinase still bound, per cent of control: 86%
PDGFRA (human)
  kinase still bound, per cent of control: 83%
PKMYT1 (human)
  kinase still bound, per cent of control: 94%
PKN2 (human)
  kinase still bound, per cent of control: 92%
PLK1 (human)
  kinase still bound, per cent of control: 93%
PLK3 (human)
  kinase still bound, per cent of control: 94%
PRKCI (human)
  kinase still bound, per cent of control: 79%
PRKG2 (human)
  kinase still bound, per cent of control: 91%
RET (human)
  kinase still bound, per cent of control: 76%
ROS1 (human)
  kinase still bound, per cent of control: 50%
RPS6KA5 KD2 (human)
  kinase still bound, per cent of control: 99%
SGK3 (human)
  kinase still bound, per cent of control: 75% and 100%
SNRK (human)
  kinase still bound, per cent of control: 91%
STK32A (human)
  kinase still bound, per cent of control: 66%
STK32B (human)
  kinase still bound, per cent of control: 88%
ULK3 (human)
  kinase still bound, per cent of control: 80%

## CC1=C(C(=O)Nc2cc3cn[nH]c3cc2F)C(c2ccc(C(F)(F)F)cc2)CC(=O)N1 (configuration not stated)
CAMK1G (human)
  kinase still bound, per cent of control: 81%
CAMK2G (human)
  kinase still bound, per cent of control: 97%
CDK3 (human)
  kinase still bound, per cent of control: 77%
CDKL1 (human)
  kinase still bound, per cent of control: 78%
CHEK1 (human)
  kinase still bound, per cent of control: 100%
CIT (human)
  kinase still bound, per cent of control: 87%
CPK1 (P.falciparum)
  kinase still bound, per cent of control: 82%
CSNK1D (human)
  kinase still bound, per cent of control: 92%
EPHB3 (human)
  kinase still bound, per cent of control: 84%
FLT4 (human)
  kinase still bound, per cent of control: 94%
GSK3A (human)
  kinase still bound, per cent of control: 100%
HCK (human)
  kinase still bound, per cent of control: 41%
HIPK4 (human)
  kinase still bound, per cent of control: 86%
IRAK1 (human)
  kinase still bound, per cent of control: 90%
[1]
  kinase still bound, per cent of control: 69%
LATS2 (human)
  kinase still bound, per cent of control: 10%
LIMK1 (human)
  kinase still bound, per cent of control: 100%
LYN (human)
  kinase still bound, per cent of control: 72%
MAP3K5 (human)
  kinase still bound, per cent of control: 100%
MAP3K6 (human)
  kinase still bound, per cent of control: 80%
MAPK7 (human)
  kinase still bound, per cent of control: 82%
MET (human)
  kinase still bound, per cent of control: 51%
[2]
  kinase still bound, per cent of control: 23%
MKNK2 (human)
  kinase still bound, per cent of control: 62%
MYLK (human)
  kinase still bound, per cent of control: 75%
MYLK2 (human)
  kinase still bound, per cent of control: 99%
PDGFRA (human)
  kinase still bound, per cent of control: 84%
PKMYT1 (human)
  kinase still bound, per cent of control: 100%
PKN2 (human)
  kinase still bound, per cent of control: 52%
PLK1 (human)
  kinase still bound, per cent of control: 96%
PLK3 (human)
  kinase still bound, per cent of control: 84%
PRKCI (human)
  kinase still bound, per cent of control: 72%
PRKG2 (human)
  kinase still bound, per cent of control: 29%
RET (human)
  kinase still bound, per cent of control: 20%
ROS1 (human)
  kinase still bound, per cent of control: 100%
RPS6KA5 KD2 (human)
  kinase still bound, per cent of control: 87%
SGK3 (human)
  kinase still bound, per cent of control: 100%
SNRK (human)
  kinase still bound, per cent of control: 100%
STK32A (human)
  kinase still bound, per cent of control: 52%
STK32B (human)
  kinase still bound, per cent of control: 52%
ULK3 (human)
  kinase still bound, per cent of control: 99%
